Reference: PubChem BioAssay (NCI)
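Interpolation was linear, between the two tested concentrations surrounding the appropriate level; five concentrations were tested over 48 hours in 96-well plates. TGI is the concentration that stops growth completely.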

How the values were obtained:
Experiment in all cases: NCI-60 cell line screen, 48 h
SF-268 CNS = tested on: SF-268 CNS
HCT-15 colon = tested on: HCT-15 colon
NCI-H460 lung = tested on: NCI-H460 lung
HCT-116 colon = tested on: HCT-116 colon
TK-10 renal = tested on: TK-10 renal
T-47D breast = tested on: T-47D breast
CAKI-1 renal = tested on: CAKI-1 renal
RPMI-8226 leukemia = tested on: RPMI-8226 leukemia
OVCAR-8 ovarian = tested on: OVCAR-8 ovarian
A549 NSCLC = tested on: A549 NSCLC
BT-549 breast = tested on: BT-549 breast

Row | SMILES | TGI (SF-268 CNS) [µM] | TGI (HCT-15 colon) [µM] | TGI (NCI-H460 lung) [µM] | TGI (HCT-116 colon) [µM] | TGI (TK-10 renal) [µM] | TGI (T-47D breast) [µM] | TGI (CAKI-1 renal) [µM] | TGI (RPMI-8226 leukemia) [µM] | TGI (OVCAR-8 ovarian) [µM] | TGI (A549 NSCLC) [µM] | TGI (BT-549 breast) [µM]
1 | CCOc1ccnc2c(OC)c(C)c3nc4ccccc4nc3c12 | > 100 | > 100 | > 100 | > 100 | > 100 | 67 | > 100 | > 100 | > 100 | > 100 | –
2 | COC(=O)CCC(=O)c1ccc2c(c1)CC1(Cc3ccccc3C1)C2 | – | – | – | > 100 | > 100 | > 100 | – | > 100 | > 100 | > 100 | –
3 | O=[N+]([O-])c1cc(C2ON=C(c3ccccc3)N2C23CC4CC(CC(C4)C2)C3)ccc1Cl (configuration not stated) | > 100 | > 100 | > 100 | > 100 | > 100 | > 100 | > 100 | > 100 | > 100 | > 100 | –
4 | COC(=O)Cc1c(-c2c(CC(=O)OC)c3ccccc3n2C2OC(COC3OC(COC(C)=O)C(OC(C)=O)C(OC(C)=O)C3OC(C)=O)C(O)C(O)C2O)[nH]c2ccccc12 (configuration not stated) | – | > 100 | > 100 | > 100 | > 100 | > 100 | > 100 | > 100 | – | > 100 | > 100
5 | Cc1cn(C2CC(/[N+]([O-])=N\Nc3ccc([N+](=O)[O-])cc3)C(CO)O2)c(=O)[nH]c1=O (configuration not stated) | > 100 | > 100 | > 100 | > 100 | > 100 | – | > 100 | > 100 | > 100 | > 100 | > 100
6 | COc1ccc(-c2c3c(n(C4OC(COC(C)=O)C(OC(C)=O)C(OC(C)=O)C4OC(C)=O)c(=S)c2C#N)CCCC3)cc1 (configuration not stated) | > 100 | > 100 | > 100 | > 100 | > 100 | > 100 | 79.9 | – | > 100 | > 100 | –
7 | O=CC1C(=O)Nc2nc3ccccc3n2C1c1ccccc1 (configuration not stated) | 27 | 37 | 82.8 | 24.9 | 71.6 | – | 48.5 | 70.4 | 46.1 | 95.4 | 28.4
8 | COc1ccc(C(CC(=O)c2ccc(O)cc2)C(C(=O)c2ccc(O)cc2)C(c2ccc(OC)cc2)C2C(=O)NC(=S)NC2=O)cc1 (configuration not stated) | 35.3 | 45.3 | 39.5 | 30.4 | 53.7 | – | – | 92.4 | 60 | 89.9 | 47.9
9 | CCOC(=O)C(C(=O)OCC)C(=S)NC1OC(COC(C)=O)C(OC(C)=O)C(OC(C)=O)C1OC(C)=O (configuration not stated) | > 100 | > 100 | > 100 | > 100 | – | > 100 | > 100 | > 100 | > 100 | > 100 | > 100
10 | [B]C(=O)NC(CC(C)C)C(=O)NC1c2ccsc2C(=O)C1O (configuration not stated) (tested in a mixture with another compound) | > 100 | > 100 | > 100 | > 100 | > 100 | > 100 | – | > 100 | > 100 | > 100 | > 100
11 | CCOC(=O)C(/C=N/C(N)=S)=C(/O)c1ccccc1 | > 100 | > 100 | > 100 | > 100 | > 100 | > 100 | > 100 | – | > 100 | > 100 | > 100
12 | CC(C)N=C(NC#N)NS(=O)(=O)c1cnccc1NC1CCCCCCC1 | > 100 | > 100 | – | > 100 | > 100 | > 100 | > 100 | > 100 | > 100 | > 100 | > 100
13 | COC(=O)c1cc(OCc2cc(OCc3ccc(Br)cc3)cc(OCc3ccc(Br)cc3)c2)cc(OCc2cc(OCc3ccc(Br)cc3)cc(OCc3ccc(Br)cc3)c2)c1 | > 100 | > 100 | > 100 | > 100 | > 100 | > 100 | > 100 | > 100 | – | > 100 | > 100
14 | COc1ccc(/C=C2\NC(=S)N(CN3CCOCC3)C2=O)cc1 | > 100 | > 100 | – | > 100 | > 100 | – | – | > 100 | > 100 | > 100 | –
15 | Cc1nc2c(ccc3[nH]c4ccccc4c32)s1 | > 100 | 51.9 | 79.4 | 37.2 | 78.1 | > 100 | > 100 | – | > 100 | > 100 | 57.3
16 | CN1CCN(C(=S)N(C(=O)c2ccc(Cl)cc2)C2CCCCC2)CC1 | > 100 | > 100 | > 100 | – | > 100 | > 100 | – | > 100 | > 100 | > 100 | > 100
17 | C[C@@H](Br)[C@@H]1CC[C@H]2c3[nH]c4ccccc4c3CCN2C1 | > 100 | 48.1 | 70.1 | – | > 100 | 61.2 | 52.4 | 37.4 | > 100 | > 100 | –
18 | COc1ccc(OC)c2c1-c1nnnn1CCC2(C)C | > 100 | > 100 | > 100 | > 100 | > 100 | > 100 | – | > 100 | > 100 | – | > 100
19 | CC(C)[Si](CC1=CCCCC12C(=O)N(COCC[Si](C)(C)C)c1ccccc12)(C(C)C)C(C)C (configuration not stated) | > 100 | > 100 | > 100 | – | > 100 | 96.9 | > 100 | > 100 | > 100 | > 100 | –
20 | CC(=O)Nc1ccc2cc3c(nc2n1)c1cccnc1n3S(=O)(=O)c1ccccc1 | > 100 | > 100 | > 100 | > 100 | > 100 | – | > 100 | > 100 | > 100 | > 100 | > 100
21 | Oc1ccccc1/C=N/N1C(=S)N(c2ccccc2)C(=Nc2ccccc2)C1=Nc1ccccc1 | 26.7 | > 100 | 32.4 | 26.5 | 20.8 | 75.6 | 29.6 | > 72.8 | 18.2 | 37.7 | –
22 | ClC1(Cl)C2CCOC21n1cnc2ccccc21 (configuration not stated) | > 100 | > 100 | – | > 100 | – | > 100 | > 100 | > 100 | > 100 | > 100 | > 100

Row | SMILES | TGI (SF-268 CNS) [µM] | TGI (HCT-15 colon) [µM] | TGI (NCI-H460 lung) [µM] | TGI (HCT-116 colon) [µM] | TGI (TK-10 renal) [µM] | TGI (T-47D breast) [µM] | TGI (CAKI-1 renal) [µM] | TGI (RPMI-8226 leukemia) [µM] | TGI (OVCAR-8 ovarian) [µM] | TGI (A549 NSCLC) [µM] | TGI (BT-549 breast) [µM]
23 | CN=C(NC#N)NCc1ccccc1 | > 100 | > 100 | > 100 | > 100 | > 100 | – | > 100 | > 100 | > 100 | > 100 | –
24 | NC(=O)NC(=O)c1cccc(C(=O)NC(N)=O)n1 | > 100 | > 100 | > 100 | > 100 | > 100 | > 100 | > 100 | > 100 | > 100 | > 100 | –
25 | Cc1cccc2c1CC1(Cc3c(C)cccc3C1=O)C2=O | > 100 | > 100 | > 100 | > 100 | > 100 | > 100 | > 100 | > 100 | > 100 | > 100 | –
26 | COc1cc(CNC(=O)CCCCCCCCCCSC#N)ccc1O | – | 23 | 38.2 | 28.1 | 44 | 48.1 | 36.8 | 59.5 | 43.2 | 42.1 | 44.6
27 | O=C(CCCN1CCC(Nc2ccc(F)cc2)(c2nnnn2C2CCCCC2)CC1)c1ccc(F)cc1 | 33.9 | 42.4 | > 100 | 26.1 | 29.4 | – | – | 34.4 | 63.4 | 31.6 | 33.1
28 | CCN(CC)C(=O)N1CN(c2ccccc2)C2(CCN(CCCC3(c4ccc(F)cc4)OCCO3)CC2)C1=O | 45.5 | 32.3 | – | 23.9 | 38.7 | > 100 | > 100 | 30.1 | 44.4 | > 100 | 28.9
29 | COc1cc(C2C(Cl)C(=O)N2NC(=O)c2ccccc2O)cc(OC)c1OC (configuration not stated) | > 10 | – | > 10 | – | > 10 | – | – | – | > 10 | > 10 | > 10
30 | COc1cc2oc(=O)cc(C)c2c(OC)c1OC | > 100 | > 100 | – | > 100 | > 100 | – | – | > 100 | > 100 | > 100 | –
31 | COc1ccccc1N1C(=O)/C(=C\c2ccccc2)SC1c1cc(OC)c(OC)c(OC)c1 (configuration not stated) | > 100 | > 100 | – | > 100 | > 100 | 37.8 | > 100 | – | > 100 | > 100 | > 100
32 | N#C[C@H](c1nc2ccccc2[nH]1)c1nc2ccccc2nc1Cl | – | > 39.9 | > 53.8 | 24.2 | 37.4 | 12.9 | 15.3 | 36.7 | > 100 | > 100 | > 47.8
33 | O=C(CN1CCOCC1)c1ccc2c(c1)oc(=O)n2CCN1CCCCC1 | > 100 | > 100 | > 100 | > 100 | > 100 | – | > 100 | > 100 | > 100 | – | > 100
34 | C[C@H](N)C(=O)Nc1ccc(-c2nc3ccccc3s2)cc1Cl | 43.7 | 62.4 | 26.2 | 24.5 | 14.7 | – | 23.2 | – | > 100 | 27.6 | 36
35 | CSc1nnc2n1-c1ccccc1SCC2 | > 100 | > 100 | > 100 | > 100 | > 100 | – | – | > 100 | > 100 | > 100 | –
36 | O=C(O)Cc1ccc(-n2nnc3c(=O)[nH][nH]c(=O)c32)cc1 | – | > 100 | > 100 | > 100 | > 100 | – | > 100 | > 100 | > 100 | > 100 | > 100
37 | Cc1c(OCc2cccc3ccccc23)ccc2c(=O)cc(S)oc12 | > 100 | > 100 | > 100 | 77.5 | > 100 | > 100 | > 100 | – | > 100 | > 100 | > 100
38 | FC(F)(F)c1ccc(N=NN2CCCC2)cc1 | > 100 | > 100 | > 100 | > 100 | > 100 | > 100 | > 100 | > 100 | – | > 100 | > 100
39 | O=C(O)COc1cccc2ccccc(=O)c12 | > 100 | > 100 | > 100 | > 100 | > 100 | > 100 | > 100 | – | > 100 | > 100 | > 100
40 | CCOC(=O)CCNC(=O)c1cc(C)cc2c1Oc1c(cc(C)cc1C(=O)NCCC(=O)OCC)S2 | > 100 | > 100 | – | > 100 | > 100 | > 100 | > 100 | > 100 | > 100 | > 100 | > 100
41 | O=CN/C=C\c1cc(O)ccc1O | > 57.8 | 23.7 | > 56.2 | 25.2 | > 64.7 | – | 26.4 | 44.6 | 32.1 | > 100 | –
42 | CN(C)C=Nc1cccc2c1NSN2 | > 100 | > 100 | > 100 | > 100 | > 100 | > 100 | > 100 | > 100 | > 100 | > 100 | –
43 | CSc1cc(Cl)c(C)cc1S(=O)(=O)NC(=O)NNc1cnc2ccccc2n1 | > 100 | > 100 | > 100 | > 100 | – | > 100 | > 100 | – | > 100 | > 100 | –
44 | NCCCCNCCCNC(=O)c1csc(-c2nc(CCN)sc2Cl)n1 | > 100 | > 100 | > 100 | > 100 | > 100 | > 100 | – | > 100 | > 100 | > 100 | > 100
